US20080069827A1, “miRNA of HSV-LAT and uses thereof” (priority 2006, published 2008)

Tests used:
Assay type in all cases: cell-based
[1] = tested on: SY5Y cells; assay: Apoptosis assay (AnnexinV FITC staining after cisplatin or etoposide) in SY5Y cells; conditions: cisplatin 24 h post transfection, compared to control
Protocol: (§1) 24 hours post-transfection cells were treated with cisplatin (10 µM) or etoposide (1-100 μM), followed by staining with AnnexinV FITC (BD Biosciences). Cells showing FITC staining, loss of cell volume, loss of refractility, and membrane blebbing were scored as apoptotic. At least 500 cells were counted in each well.
as §1, with “μM)” for “µM)”, “([…]” for “(1-100”, “well. The data represent mean±S.D. from at least three independent experiments.” for “well.”

[2] = tested on: HeLa cells; assay: Apoptosis assay (AnnexinV FITC staining after cisplatin or etoposide) in HeLa cells; conditions: cisplatin 24 h post transfection, compared to control miRNA
Protocol: as §1
as §1, with “μM)” for “µM)”, “([…]” for “(1-100”, “well. The data represent mean±S.D. from at least three independent experiments.” for “well.”

[3] = tested on: 3′UTR of TGF-β; assay: Renilla luciferase reporter with 3′UTR / mirLAT target site of TGF-β in SY5Y cells
Protocol: (§2) Cells were co-transfected with pCDNA or PstMlu (1 μg) and the respective reporter constructs (500 ng) along with pSV-βgal (10 ng). For induction of TGF-p signaling, 24 h following transfection the cells were treated with 10 ng/ml of recombinant TGF-β1 protein (R&D systems). Reporter activity was measured using a appropriate assay kits (promega).
(§3) SY5Y cells were maintained in RPMI medium with 10% fetal calf serum and antibiotics. HeLa cells were grown in DMEM medium supplemented with 5% fetal calf serum and antibiotics. Plasmids having the PstMlu fragment of LAT and its deletion mutant ΔSty have been described. GFP-shRNA pSilencer plasmid was a kind gift from Dr Kuan-Teh Jeang, NIH, USA. The SBE4-Luc construct was a kind gift from Dr Anita Roberts, NIH, USA. The pGL3-control and pSV-βgal plasmids were obtained from Promega. The pRL-TK vector was obtained from Dr Zissimos Mourelatos, University of Pennsylvannia, USA. […] Recombinants were scored for reversion of deletion in ΔSty resulting in virus which is genetically similar to wild type virus. […]
(§4) Cells were co-transfected with pCDNA or PstMlu (1 μg) and the respective reporter constructs (500 ng) along with pSV-βgal (100 ng). […] Luciferase activity was measured using a renilla or firefly Luciferase assay kit (promega). β-galactosidase activity was determined in all lysates (promega) according to manufacturer's instructions. […]

[4] = tested on: 3′UTR of SMAD-3; assay: Renilla luciferase reporter with 3′UTR / mirLAT target site of SMAD-3 in SY5Y cells
Protocol: as §2, §3, §4

[5] = tested on: TGF-β/SMAD-dependent transcription; assay: SBE4-Luc TGF-β responsive reporter assay in SY5Y cells; conditions: 10 ng/ml recombinant TGF-β1
Protocol: as §2
Cells were co-transfected with pCDNA or PstMlu (1 μg) and the respective reporter constructs (500 ng) along with pSV-βgal (100 ng). For induction of TGF-β signaling, 24 h following transfection the cells were treated with 10 ng/ml of recombinant TGF-β 1 protein (R&D systems) for 12-16 hours at 37° C. in serum free media. Cells were lysed using the reporter lysis buffer (promega). Luciferase activity was measured using a renilla or firefly Luciferase assay kit (promega). β-galactosidase activity was determined in all lysates (promega) according to manufacturer's instructions. The Luciferase activity in all samples was normalized to the amount of β-galactosidase activity.

[6] = tested on: TGF-β; assay: TGF-β expression (RT-PCR, latent TGF-β1 ELISpot); conditions: SY5Y cells
Protocol: (§5) RNA was isolated using Trizol reagent (Invitrogen). RNA was reverse transcribed using Superscript II RT enzyme (Invitrogen). Northern blot analysis of 50-60 μg total RNA was done as described previously. Western blot analysis was performed on whole cell lysates using Dicer polyclonal antibody and β-actin antibody (Amersham). SMAD-3 and TGF-β receptor I antibodies were from Abcam.
(§6) RNA was isolated using Trizol reagent according to the manufacturer's instruction. RNA was reverse transcribed using Superscript II RT enzyme (Invitrogen). Dicer, TGF-β 1, SMAD-3, TGF-β receptor I and GAPDH cDNA were amplified using gene specific primers. Northern blot analysis of 50-60 μg total RNA was done. Radioactive probes were generated using Starfire oligonucleotide labeling system (IDT). Western blot analysis was performed on whole cell lysates using Dicer polyclonal antibody, a kind gift from Dr Ramin Shiekhattar, Wistar Institute, Philadelphia, USA and β-actin antibody (Amersham). SMAD-3 and TGF-β receptor I antibodies were from Abcam. […] Synthetic RNA molecule corresponding to the mirLAT pre-miRNA (Dhramacon) was radiolabelled by polynucleotide kinase reaction (Invitrogen), column purified and incubated with 2 U Recombinant Dicer enzyme (Stratagene) at 37° C. for 16 hours and analyzed by gel electrophoresis and exposure to a phosphor imager screen.

[7] = tested on: SMAD-3; assay: SMAD-3 expression (RT-PCR, Western blot); conditions: SY5Y cells
Protocol: as §5, §6

[8] = mutant target site that disrupts mirLAT binding
[9] = single copy of wild-type mirLAT target site

With 5′-GUGGCGGCCCGGCCCGGGGCCTT-3′ [mirLAT] the “cisplatin-induced apoptosis (percentage apoptosis)” value [1] was “significant reduction in apoptosis”, the “cisplatin-induced apoptosis (percentage apoptosis)” value [2] was “significant reduction in apoptosis” and the “luciferase activity, mutant TGF-β target site construct” value [3, 8] was “does not show any significant decrease in luciferase activity”. The “reduction in luciferase activity, wild-type TGF-β target site construct” value [3, 9] was “up to 90%”, the “luciferase activity, mutant SMAD-3 target site construct” value [4, 8] was “does not show any significant decrease in luciferase activity” and the “reduction in luciferase activity, wild-type SMAD-3 target site construct” value [4, 9] was “up to 90%”. For the same substance, the “TGF-β mediated induction of SBE4-Luc reporter” value [5] was “significant reduction in TGF-β mediated induction”.
“CCAACUAUUGCUUCAGCUCTT (chemistry not given here) [TGF-β siRNA, siRNA directed against TGF-β (Ambion)]” was tested, and the “cisplatin-induced apoptosis (percentage apoptosis)” value [1] was “confers resistance to apoptosis” and the “mRNA levels / expression of TGF-β” value [6] was “inhibited”.
For “GCACAUAAUAACUUGGACCTT (chemistry not given here) [SMAD-3 siRNA, siRNA directed against SMAD-3 (Ambion)]”, the “cisplatin-induced apoptosis (percentage apoptosis)” value [1] was “confers resistance to apoptosis” and the “mRNA levels / expression of SMAD-3” value [7] was “inhibited”.
